Assay results from patent US9469650B2, “Melampomagnolide B derivatives” (BOARD OF TRUSTEES OF THE UNIVERSITY OF ARKANSAS, priority 2013, dated 2016).

Legend:
[1] = tested on: SNB-75; test: panel of 60 human tumor cell lines, growth inhibition (CNS Cancer); settings: SNB-75
[2] = tested on: HCT-116; test: panel of 60 human tumor cell lines, growth inhibition (Colon Cancer); settings: HCT-116
[3] = tested on: NCI-H23; test: panel of 60 human tumor cell lines, growth inhibition (Non-Small Cell Lung Cancer); settings: NCI-H23
[4] = tested on: UACC-62; test: panel of 60 human tumor cell lines, growth inhibition (Melanoma); settings: UACC-62
[5] = tested on: SNB-19; test: panel of 60 human tumor cell lines, growth inhibition (CNS Cancer); settings: SNB-19
[6] = tested on: 786-0; test: panel of 60 human tumor cell lines, growth inhibition (Renal Cancer); settings: 786-0
[7] = tested on: DU-145; test: panel of 60 human tumor cell lines, growth inhibition (Prostate Cancer); settings: DU-145
[8] = tested on: KM12; test: panel of 60 human tumor cell lines, growth inhibition (Colon Cancer); settings: KM12
[9] = tested on: CCRF-CEM; test: panel of 60 human tumor cell lines, growth inhibition (Leukemia)
[10] = tested on: A498; test: panel of 60 human tumor cell lines, growth inhibition (Renal Cancer); settings: A498

C=C1C(=O)O[C@H]2[C@H]1CC/C(COC(=O)N1CCN(C)CC1)=C\CC[C@@]1(C)O[C@@H]21 [JVM 2-44]
GI50 [1]: 7.65 µM
TGI [1]: 2.40E−5
Mean Optical Densities ([1]; Log10 Concentration −4.0): 0.183
Percent Growth ([1]; Log10 Concentration −4.0): −76%
Mean Optical Densities ([1]; Log10 Concentration −5.0): 1.112
Percent Growth ([1]; Log10 Concentration −5.0): 47%
Mean Optical Densities ([1]; Log10 Concentration −6.0): 1.330
Percent Growth ([1]; Log10 Concentration −6.0): 76%
Mean Optical Densities ([1]; Log10 Concentration −7.0): 1.274
Percent Growth ([1]; Log10 Concentration −7.0): 68%
Mean Optical Densities ([1]; Log10 Concentration −8.0): 1.343
Percent Growth ([1]; Log10 Concentration −8.0): 78%
GI50 [2]: 3.79 µM
TGI [2]: 1.43E−5
Mean Optical Densities ([2]; Log10 Concentration −4.0): 0.061
Percent Growth ([2]; Log10 Concentration −4.0): −80%
Mean Optical Densities ([2]; Log10 Concentration −5.0): 0.598
Percent Growth ([2]; Log10 Concentration −5.0): 15%
Mean Optical Densities ([2]; Log10 Concentration −6.0): 2.231
Percent Growth ([2]; Log10 Concentration −6.0): 98%
Mean Optical Densities ([2]; Log10 Concentration −7.0): 2.250
Percent Growth ([2]; Log10 Concentration −7.0): 99%
Mean Optical Densities ([2]; Log10 Concentration −8.0): 2.298
Percent Growth ([2]; Log10 Concentration −8.0): 102%
GI50 [3]: 11.8 µM
TGI [3]: 3.12E−5
Mean Optical Densities ([3]; Log10 Concentration −4.0): 0.244
Percent Growth ([3]; Log10 Concentration −4.0): −60%
Mean Optical Densities ([3]; Log10 Concentration −5.0): 1.347
Percent Growth ([3]; Log10 Concentration −5.0): 58%
Mean Optical Densities ([3]; Log10 Concentration −6.0): 1.872
Percent Growth ([3]; Log10 Concentration −6.0): 100%
Mean Optical Densities ([3]; Log10 Concentration −7.0): 1.838
Percent Growth ([3]; Log10 Concentration −7.0): 97%
Mean Optical Densities ([3]; Log10 Concentration −8.0): 1.849
Percent Growth ([3]; Log10 Concentration −8.0): 98%
GI50 [4]: 6.56 µM
TGI [4]: 2.14E−5
Mean Optical Densities ([4]; Log10 Concentration −4.0): 0.089
Percent Growth ([4]; Log10 Concentration −4.0): −83%
Mean Optical Densities ([4]; Log10 Concentration −5.0): 1.284
Percent Growth ([4]; Log10 Concentration −5.0): 41%
Mean Optical Densities ([4]; Log10 Concentration −6.0): 2.153
Percent Growth ([4]; Log10 Concentration −6.0): 89%
Mean Optical Densities ([4]; Log10 Concentration −7.0): 2.330
Percent Growth ([4]; Log10 Concentration −7.0): 99%
Mean Optical Densities ([4]; Log10 Concentration −8.0): 2.369
Percent Growth ([4]; Log10 Concentration −8.0): 101%
GI50 [5]: 19.6 µM
TGI [5]: 6.35E−5
Mean Optical Densities ([5]; Log10 Concentration −4.0): 0.513
Percent Growth ([5]; Log10 Concentration −4.0): −19%
Mean Optical Densities ([5]; Log10 Concentration −5.0): 1.860
Percent Growth ([5]; Log10 Concentration −5.0): 79%
Mean Optical Densities ([5]; Log10 Concentration −6.0): 2.030
Percent Growth ([5]; Log10 Concentration −6.0): 90%
Mean Optical Densities ([5]; Log10 Concentration −7.0): 2.075
Percent Growth ([5]; Log10 Concentration −7.0): 93%
Mean Optical Densities ([5]; Log10 Concentration −8.0): 2.149
Percent Growth ([5]; Log10 Concentration −8.0): 97%
GI50 [6]: 6.53 µM
TGI [6]: 2.42E−5
Mean Optical Densities ([6]; Log10 Concentration −4.0): 0.194
Percent Growth ([6]; Log10 Concentration −4.0): −64%
Mean Optical Densities ([6]; Log10 Concentration −5.0): 1.194
Percent Growth ([6]; Log10 Concentration −5.0): 40%
Mean Optical Densities ([6]; Log10 Concentration −6.0): 2.074
Percent Growth ([6]; Log10 Concentration −6.0): 94%
Mean Optical Densities ([6]; Log10 Concentration −7.0): 2.022
Percent Growth ([6]; Log10 Concentration −7.0): 91%
Mean Optical Densities ([6]; Log10 Concentration −8.0): 2.113
Percent Growth ([6]; Log10 Concentration −8.0): 96%
GI50 [7]: 3.98 µM
TGI [7]: 1.44E−5
Mean Optical Densities ([7]; Log10 Concentration −4.0): 0.835
Percent Growth ([7]; Log10 Concentration −4.0): −93%
Mean Optical Densities ([7]; Log10 Concentration −5.0): 0.750
Percent Growth ([7]; Log10 Concentration −5.0): 17%
Mean Optical Densities ([7]; Log10 Concentration −6.0): 1.844
Percent Growth ([7]; Log10 Concentration −6.0): 99%
Mean Optical Densities ([7]; Log10 Concentration −7.0): 1.845
Percent Growth ([7]; Log10 Concentration −7.0): 99%
Mean Optical Densities ([7]; Log10 Concentration −8.0): 1.839
Percent Growth ([7]; Log10 Concentration −8.0): 99%
GI50 [8]: 14.2 µM
TGI [8]: 3.13E−5
Mean Optical Densities ([8]; Log10 Concentration −4.0): 0.105
Percent Growth ([8]; Log10 Concentration −4.0): −74%
Mean Optical Densities ([8]; Log10 Concentration −5.0): 1.680
Percent Growth ([8]; Log10 Concentration −5.0): 72%
Mean Optical Densities ([8]; Log10 Concentration −6.0): 2.184
Percent Growth ([8]; Log10 Concentration −6.0): 101%
Mean Optical Densities ([8]; Log10 Concentration −7.0): 2.151
Percent Growth ([8]; Log10 Concentration −7.0): 99%
Mean Optical Densities ([8]; Log10 Concentration −8.0): 2.117
Percent Growth ([8]; Log10 Concentration −8.0): 97%
GI50 [9]: 3.06 µM
TGI [9]: 1.84E−5
Mean Optical Densities ([9]; Log10 Concentration −4.0): 0.393
Percent Growth ([9]; Log10 Concentration −4.0): −25%
Mean Optical Densities ([9]; Log10 Concentration −5.0): 0.689
Percent Growth ([9]; Log10 Concentration −5.0): 9%
Mean Optical Densities ([9]; Log10 Concentration −6.0): 2.185
Percent Growth ([9]; Log10 Concentration −6.0): 89%
Mean Optical Densities ([9]; Log10 Concentration −7.0): 2.250
Percent Growth ([9]; Log10 Concentration −7.0): 92%
Mean Optical Densities ([9]; Log10 Concentration −8.0): 2.265
Percent Growth ([9]; Log10 Concentration −8.0): 93%
GI50 [10]: 10.2 µM
TGI [10]: 3.47E−5
Mean Optical Densities ([10]; Log10 Concentration −4.0): 0.967
Percent Growth ([10]; Log10 Concentration −4.0): −43%
Mean Optical Densities ([10]; Log10 Concentration −5.0): 2.150
Percent Growth ([10]; Log10 Concentration −5.0): 51%
